Test results as given in paper PMC1847690 (PLoS Pathogens, 2007).

Legend:
[1] = molecular target: PknE kinase domain (PknE1–286) (Mycobacterium tuberculosis, UniProt P9WI77)
[2] = molecular target: PknB kinase domain (PknB1–308) (Mycobacterium tuberculosis, UniProt P9WI81)
[3] = molecular target: PknA kinase domain (PknA1–337) (Mycobacterium tuberculosis, UniProt P9WI83)
UsfX (Rv3287c) = molecular target: T1, UsfX (Rv3287c) (Mycobacterium tuberculosis, UniProt P9WGX7)
T1 construct: gene rsbW

[4] = molecular target: PknK kinase domain (PknK1–289) (Mycobacterium tuberculosis, UniProt P9WI65)
Sequence of PknK kinase domain (PknK1–289) (P9WI65 1-289): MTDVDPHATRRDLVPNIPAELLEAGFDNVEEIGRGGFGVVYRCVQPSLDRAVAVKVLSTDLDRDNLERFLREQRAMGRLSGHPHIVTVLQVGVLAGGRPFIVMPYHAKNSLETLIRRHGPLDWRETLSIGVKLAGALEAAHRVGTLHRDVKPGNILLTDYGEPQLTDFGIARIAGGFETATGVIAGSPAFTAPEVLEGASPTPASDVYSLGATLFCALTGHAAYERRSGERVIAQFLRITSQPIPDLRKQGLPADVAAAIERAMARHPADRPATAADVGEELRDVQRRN

[5] = molecular target: PknD kinase domain (PknD1–378) (Mycobacterium tuberculosis, UniProt P9WI79)
Sequence of PknD kinase domain (PknD1–378) (P9WI79 1-378): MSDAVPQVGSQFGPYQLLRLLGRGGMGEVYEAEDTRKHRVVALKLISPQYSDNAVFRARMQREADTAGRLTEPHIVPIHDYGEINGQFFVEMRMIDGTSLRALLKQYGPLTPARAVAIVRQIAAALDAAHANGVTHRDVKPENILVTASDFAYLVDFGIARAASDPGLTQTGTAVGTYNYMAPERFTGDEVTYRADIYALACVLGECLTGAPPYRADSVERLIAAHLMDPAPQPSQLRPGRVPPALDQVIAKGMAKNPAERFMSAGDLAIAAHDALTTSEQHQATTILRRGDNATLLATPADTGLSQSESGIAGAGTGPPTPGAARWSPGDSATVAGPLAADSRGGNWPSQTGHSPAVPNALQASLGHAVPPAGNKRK

Sequence of PknE kinase domain (PknE1–286) (P9WI77 1-286): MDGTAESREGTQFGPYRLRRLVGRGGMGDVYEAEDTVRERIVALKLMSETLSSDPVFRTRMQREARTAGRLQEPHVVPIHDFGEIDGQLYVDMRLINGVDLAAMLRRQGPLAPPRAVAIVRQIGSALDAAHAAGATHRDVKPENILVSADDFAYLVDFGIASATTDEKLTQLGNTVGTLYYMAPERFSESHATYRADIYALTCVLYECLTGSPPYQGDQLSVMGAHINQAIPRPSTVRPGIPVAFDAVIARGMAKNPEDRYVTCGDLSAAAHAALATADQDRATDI
Sequence of PknB kinase domain (PknB1–308) (P9WI81 1-308): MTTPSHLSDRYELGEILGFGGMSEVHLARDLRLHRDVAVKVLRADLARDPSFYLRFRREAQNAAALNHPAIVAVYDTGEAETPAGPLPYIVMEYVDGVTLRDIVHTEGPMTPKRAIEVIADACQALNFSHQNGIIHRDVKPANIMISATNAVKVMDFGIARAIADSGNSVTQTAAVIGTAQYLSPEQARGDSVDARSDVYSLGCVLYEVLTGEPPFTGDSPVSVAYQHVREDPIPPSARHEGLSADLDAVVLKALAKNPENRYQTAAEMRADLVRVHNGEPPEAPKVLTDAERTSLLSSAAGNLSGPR
T1 sequence (P9WGX7 whole entry): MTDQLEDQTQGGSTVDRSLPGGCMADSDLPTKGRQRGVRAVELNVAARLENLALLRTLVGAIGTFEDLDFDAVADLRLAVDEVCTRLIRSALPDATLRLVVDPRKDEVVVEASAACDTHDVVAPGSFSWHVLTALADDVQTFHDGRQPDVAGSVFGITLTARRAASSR
Sequence of PknA kinase domain (PknA1–337) (P9WI83 1-337): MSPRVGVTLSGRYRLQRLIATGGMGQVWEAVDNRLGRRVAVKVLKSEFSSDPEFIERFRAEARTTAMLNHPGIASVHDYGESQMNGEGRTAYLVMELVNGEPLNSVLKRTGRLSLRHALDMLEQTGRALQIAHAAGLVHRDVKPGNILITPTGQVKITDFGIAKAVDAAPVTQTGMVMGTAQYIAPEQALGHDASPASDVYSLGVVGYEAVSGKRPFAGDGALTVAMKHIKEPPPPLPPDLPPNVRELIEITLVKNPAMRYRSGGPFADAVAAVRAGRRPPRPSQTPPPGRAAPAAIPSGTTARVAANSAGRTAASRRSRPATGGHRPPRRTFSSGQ

## Nc1ncnc2c1ncn2[C@@H]1O[C@H](COP(=O)(O)OP(=O)(O)OP(=O)(O)O)[C@@H](O)[C@H]1O [ATP]
[1]
  [γ-32P]ATP transfer to Rv0516c, RshA, Rv1904 and RsfA, autoradiography: PknE weakly phosphorylated Rv1904 and RsfA (Rv1365c)
[2]
  [γ-32P]ATP transfer to Rv0516c and RshA, autoradiography: PknB and PknE also phosphorylated the anti–sigma factor RshA (Rv3221A)
[3]
  [γ-32P]ATP transfer to MyBP and the MBP tag, autoradiography: The MBP tag was phosphorylated by the PknA, PknB, and PknE kinase domains
UsfX (Rv3287c)
  phosphorylation of MyBP, autoradiography: we incubated these proteins under conditions in which UsfX phosphorylated the model substrate
[4]
  [γ-32P]ATP transfer to MyBP, autoradiography: At concentrations of each kinase domain equally active in phosphorylating the nonspecific substrate, MyBP

## O=C1c2ccccc2-c2n[nH]c3cccc1c23 [SP600125]
[5]
  dose-dependent inhibition: The SP600125 inhibitor blocked this Rv0516c phosphorylation (Figure 3B) in a dose-dependent manner
